Read-outs that look alike come from different tables or passages of the source.
How the values were obtained:
[1] = system: PAF-induced platelet aggregation (human platelet-rich plasma); test: PAF-induced platelet aggregation (in vitro); type: cell-based; conditions: PAF 1-5×10^-8 M, read-out: PAF Antagonism (in vitro) IC50
Method: Platelet-activating factor (PAF) causes aggregation of platelets by a receptor-mediated mechanism. Therefore, PAF-induced platelet aggregation provides a simple and convenient assay to screen compounds for PAF antagonism.
Blood was centrifuged at 110× g for 15 min. and the supernatant platelet-rich plasma (PRP) carefully transferred into a polypropylene tube. Platelet-poor-plasma (PPP) was prepared by centrifuging PRP at 12,000× g for 2 min. (Beckman Microfuge B). PRP was used within 3 hr. of drawing the blood.
PAF was dissolved in chloroform:methanol (1:1, v/v) at a concentration of 2 mg/ml and stored at -70° C. An aliquot of this solution was transferred to a polypropylene tube and dried under a flow of nitrogen gas. […] This stock solution was further diluted to appropriate concentrations in Hepes-saline-BSA buffer. Collagen (Sigma) and adenosine diphosphate (ADP) (Sigma) were purchased as solutions. Test compounds were initially dissolved in dimethyl sulfoxide (DMSO) at a concentration of 50 mM and then further diluted in Hepes-saline-BSA buffer to achieve appropriate concentrations.
When an aggregating agent such as PAF is added to PRP, platelets aggregate. An aggregometer quantifies this aggregation by measuring and comparing light (infra-red) transmission through PPP and PRP. Aggregation assays were performed using a dual-channel aggregometer (Model 440, Chrono-Log Corp., Havertown, Pa.). PRP (0.45 ml) in aggregometer cuvettes was continually stirred (37° C.). […] Incubations were continued until the increase in light transmission reached a maximum (usually 2 min.). This increase in light transmission reflecting platlet aggregation is transmitted to a computer by the Chrono-Log model 810 AGGRO/LINK interface. The AGGRO/LINK calculates the slope of transmission change, thus providing the rate of aggregation. Values for inhibition were calculated by comparing rates of aggregation obtained in the absence and the presence of the compound. For each experiment, a standard PAF antagonist such as 8-chloro-6,11-dihydro-11-(1-acetyl-4-piperidylidene)-5H-benzo[5,6]cyclohepta[1,2-b]pyridine was used as a positive control.
Compounds that inhibit PAF-induced aggregation were tested against several other aggregating agents including collagen (0.2 mg/ml) and ADP (2 μM).

PAF = test: PAF-induced bronchospasm in guinea pigs; set-up: species or system guinea pig (male Hartley); conditions: Cavia porcellus, read-out: PAF Agonist Bronchospasm (in Vivo) % Inhibition
Histamine = test: Histamine-induced bronchospasm in guinea pigs; type: in vivo, guinea pig (male Hartley); conditions: oral, histamine 10 ug/kg i.v.
Method: Male Hartley guinea pigs (450-550 g) were obtained from Charles River Breeding Laboratories. The animals were fasted overnight and the following day were anesthetized with 0.9 ml/kg i.p. of dialurethane (containing 0.1 g/ml diallylbarbituric acid, 0.4 g/ml ethylurea and 0.4 g/ml urethane). The left jugular vein was cannulated for the administration of compounds. The trachea was cannulated and the animals were ventilated by a rodent respirator at 55 strokes/min. with a stroke volume of 4 ml. A side arm to the tracheal cannula was connected to a pressure transducer to obtain a continuous measure of inflation pressure. Bronchoconstriction was measured as the percent increase in inflation pressure that peaked within 5 min. after challenge with spasmogen. […] Each animal was challenged with only a single spasmogen. The effect of a compound on the bronchospasm is expressed as a percent inhibition of the increase in inflation pressure compared to the increase in a control group.

Compound | IC50 [1] | inhibition in vivo at 3 mg/kg (PAF; oral, PAF 0.4 μg/kg i.v.) | Histamine Agonist Bronchospasm (in Vivo) % Inhibition (Histamine; 1 mg/kg) | further results
[O-][n+]1ccc(CN2CCC(=C3c4ccc(Cl)cc4CCc4cccnc43)CC2)cc1 [Compound 4] | 4.1 µM | 35% | 96% | 
[O-][n+]1ccc(CN2CCC(=C3c4ccccc4Oc4cccnc43)CC2)cc1 [Compound 10] | 8.1 µM |  |  | 
Clc1ccc2c(c1)CCc1cccnc1C2=C1CCN(Cc2ccncc2)CC1 [Compound 3] | 7.3 µM | 32% |  | 
[O-][n+]1ccc(CN2CCN(C3c4ccc(Cl)cc4OCc4cccnc43)CC2)cc1 (racemic) [Compound 9] | 1.7 µM | 22% |  | 
[O-][n+]1ccc(CN2CCC(=C3c4ccccc4CCc4ccccc43)CC2)cc1 [Compound 6] | 3.4 µM | 0% |  | 
CC(=O)N1CCC(=C2c3ccc(Cl)cc3CCc3cccnc32)CC1 [Compound 2, reference compound] | 0.61 µM |  |  | inhibition in vivo at 5 mg/kg (PAF; oral, PAF 0.4 μg/kg i.v.): 59%; Histamine Agonist Bronchospasm (in Vivo) % Inhibition (Histamine; 3 mg/kg): 49%
[O-][n+]1ccc(CN2CCN(C3c4ccc(Cl)cc4CCc4cccnc43)CC2)cc1 (racemic) [Compound 7] | 0.71 µM | 81% |  | Histamine Agonist Bronchospasm (in Vivo) % Inhibition (Histamine; 3 mg/kg): 100%
[O-][n+]1ccc(CN2CCC(=C3c4ccc(Cl)cc4SCc4cccnc43)CC2)cc1 [Compound 8] | 1 µM |  | 83% | inhibition in vivo at 5 mg/kg (PAF; oral, PAF 0.4 μg/kg i.v.): 67%
CCOC(=O)N1CCC(=C2c3ccc(Cl)cc3CCc3cccnc32)CC1 [Compound 1, reference compound] |  |  | > 50% | inhibition in vivo at 10 mg/kg (PAF; po): < 50%
[O-][n+]1ccc(CN2CCC(=C3c4ccccc4C=Cc4ccccc43)CC2)cc1 [Compound 5] | 7.4 µM |  |  | inhibition in vivo at 10 mg/kg (PAF; oral, 10 mg/kg, PAF 0.4 μg/kg i.v.): 15%

Source: patent US5422351A, “Bis-benzo or benzopyrido cyclohepta piperidene, piperidylidene and piperazine compounds, compositions and methods of use” (Schering Corporation, priority 1992, dated 1995)
